Test results taken from article PMC10381184, “Unprecedented Antimicrobial and Cytotoxic Polyketides from Cultures of Diaporthe africana sp. nov” (Journal of Fungi, 2023).
In brackets after ≈: the same amount, converted by molar mass. Where two headings read alike, the source gives them in different places. Marks after values point to notes of the source that are not given here.

Experiments:
Format in all cases: cell-based
[1] = system: Pseudomonas aeruginosa PA14; assay: MIC serial dilution assay; parameters: key: (-): No inhibition
Protocol: (§1) The Minimum Inhibitory Concentration (MIC) of the isolated metabolites (1–8) was evaluated using serial dilution assays in a 96-well microtiter plate against a panel of Gram-positive bacteria, namely Bacillus subtilis DSM 10, Mycobacterium smegmatis ATCC 700084 and Staphylococcus aureus DSM 346; Gram-negative bacteria, including Acinetobacter baumannii DSM 30008, Chromobacterium violaceum DSM 30191, Escherichia coli DSM 1116 and Pseudomonas aeruginosa PA14 and fungal cultures of Candida albicans DSM 1665, Mucor hiemalis DSM 2656, Rhodotorula glutinis DSM 10134, Schizosaccharomyces pombe DSM 70572 and Wickerhamomyces anomalus DSM 6766, according to previously described protocols. The MTT-based cytotoxicity assay was performed against several cancer cell lines (human endocervical adenocarcinoma KB 3.1, mouse fibroblasts L929, squamous cancer A431, breast cancer MCF-7, lung cancer A549, ovary cancer SK-OV-3, and prostate cancer PC-3) in accordance with our previously established protocols.

mouse fibroblasts L929 = assay: MTT-based cytotoxicity assay
Protocol: as §1

[2] = system: human endocervical adenocarcinoma KB 3.1; assay: MTT-based cytotoxicity assay
Protocol: as §1

[3] = system: Wickerhamomyces anomalus DSM 6766; assay: MIC serial dilution assay; parameters: key: (-): No inhibition; details: starting concentration 66.7 μg/mL
Protocol: as §1

[4] = system: Chromobacterium violaceum DSM 30191; assay: MIC serial dilution assay; parameters: key: (-): No inhibition; details: starting concentration 66.7 μg/mL
Protocol: as §1

[5] = system: Rhodotorula glutinis DSM 10134; assay: MIC serial dilution assay; parameters: key: (-): No inhibition; details: Rhodoturula glutinis, starting concentration 66.7 μg/mL
Protocol: as §1

Mucor hiemalis DSM 2656 = assay: MIC serial dilution assay; parameters: key: (-): No inhibition
Protocol: as §1

[6] = system: Mycobacterium smegmatis ATCC 700084; assay: MIC serial dilution assay; parameters: key: (-): No inhibition
Protocol: as §1

Bacillus subtilis DSM 10 = assay: MIC serial dilution assay; parameters: key: (-): No inhibition
Protocol: as §1

[7] = system: Escherichia coli DSM 1116; assay: MIC serial dilution assay; parameters: key: (-): No inhibition; details: starting concentration 66.7 μg/mL
Protocol: as §1

[8] = system: Schizosaccharomyces pombe DSM 70572; assay: MIC serial dilution assay; parameters: key: (-): No inhibition
Protocol: as §1

[9] = system: Candida albicans DSM 1665; assay: MIC serial dilution assay; parameters: key: (-): No inhibition; details: starting concentration 66.7 μg/mL
Protocol: as §1

[10] = system: Staphylococcus aureus DSM 346; assay: MIC serial dilution assay; parameters: key: (-): No inhibition
Protocol: as §1

[11] = system: Acinetobacter baumannii DSM 30008; assay: MIC serial dilution assay; parameters: key: (-): No inhibition; details: Acinetobacter baumanii, starting concentration 66.7 μg/mL
Protocol: as §1

[12] = system: panel of bacteria and fungi; assay: Antimicrobial serial dilution assay, whole panel; details: result in words
Protocol: as §1

lung cancer A549 = assay: MTT-based cytotoxicity assay
Protocol: as §1

squamous cancer A431 = assay: MTT-based cytotoxicity assay
Protocol: as §1

breast cancer MCF-7 = assay: MTT-based cytotoxicity assay
Protocol: as §1

ovary cancer SK-OV-3 = assay: MTT-based cytotoxicity assay
Protocol: as §1

prostate cancer PC-3 = assay: MTT-based cytotoxicity assay
Protocol: as §1

[13] = Mus musculus, starting concentration 37 µg/mL, read-out: IC50
[14] = Homo sapiens, KB 3-1, KB3.1, starting concentration 37 µg/mL, read-out: IC50
[15] = Rhodotorula glutinis, DSM10134, read-out: MIC
[16] = DSM2656, starting concentration 66.7 μg/mL, read-out: MIC
[17] = starting concentration 66.7 μg/mL
[18] = DSM10, starting concentration 66.7 μg/mL, read-out: MIC
[19] = DSM70572, starting concentration 66.7 μg/mL, read-out: MIC
[20] = DSM346, starting concentration 66.7 μg/mL, read-out: MIC
[21] = PC-3, starting concentration 37 µg/mL, read-out: IC50
[22] = starting concentration 37 µg/mL, read-out: IC50

Row | Molecule | IC50 (mouse fibroblasts L929; [13]) | IC50 [2, 14] | MIC [3] | MIC [4] | MIC (Mucor hiemalis DSM 2656; [16]) | MIC [6, 17] | MIC (Bacillus subtilis DSM 10; [18]) | MIC [7] | MIC [1, 17] | MIC [9] | MIC [10, 20] | MIC [11] | MIC [5] | MIC [8, 17] | also measured
1 | CNC(C)C1CCC(N)C(OC2C(N)CC(N)C(OC3OCC(C)(O)C(NC)C3O)C2O)O1 (centres unmarked) [Gentamicin, reference compound] |  |  |  |  |  |  |  |  |  |  |  |  |  |  | MIC ([1]; PA14, starting concentration 66.7 μg/mL, read-out: MIC): 0.21 µg/mL (≈ 0.44 µM)
2 | CC(C)=CCc1ccc(O)c2c1C(c1cc(C)cc3c1O[C@H](C(C)(C)O)CO3)NC2=O (mixture of isomers) [Compound 5, diaporisoindole A/B] | 54400 nM | 22000 nM | - | - | 66.6 µg/mL | - | 66.6 µg/mL | - | - | - | 66.6 µg/mL | - |  |  | MIC [5, 15]: 66.6 µg/mL; MIC [8, 19]: 33.3 µg/mL
3 | CC(C)=CCc1ccc(O)c2c1C(O)(c1cc(C)cc3c1OC(C(C)(C)O)CO3)OC2=O (centres unmarked) [Compound 2, isoprenylisobenzofuran B] | > 84000 nM | > 84000 nM | - | - |  | - |  | - | - | - |  | - | - | - | IC50 ([2]; KB3.1, starting concentration 37 µg/mL): slight inhibition; MIC (Mucor hiemalis DSM 2656; [17]): -; MIC (Bacillus subtilis DSM 10; [17]): -; MIC [10, 17]: -; antimicrobial activity against the tested microorganisms [12]: no activity
4 | CC(C)=CCc1ccc(O)c2c1C(O)(c1cc(C)cc3c1O[C@H](C(C)(C)O)CO3)OC2 (mixture of isomers) [Compound 3, isoprenylisobenzofuran C1/C2] | 51600 nM | 32900 nM | - | - | 66.6 µg/mL | - | 33.3 µg/mL | - | - | - | 33.3 µg/mL | - | - | - | 
5 | NC[C@H]1O[C@H](O[C@H]2[C@H](O)[C@@H](O[C@H]3O[C@H](CO)[C@@H](O)[C@H](N)[C@H]3O)[C@H](N)C[C@@H]2N)[C@H](O)[C@@H](O)[C@@H]1O [Kanamycin, reference compound] |  |  |  |  |  | 1.7 ^k µg/mL |  |  |  |  |  |  |  |  | 
6 | C/C(=C\c1csc(C)n1)[C@@H]1C[C@@H]2O[C@]2(C)CCC[C@H](C)[C@H](O)[C@@H](C)C(=O)C(C)(C)[C@@H](O)CC(=O)O1 [Epothilone B, reference compound] |  |  |  |  |  |  |  |  |  |  |  |  |  |  | IC50 (lung cancer A549; Homo sapiens): 0.069 nM; IC50 (squamous cancer A431; Homo sapiens, A-431): 0.055 nM; IC50 (mouse fibroblasts L929; Mus musculus): 0.43 nM; IC50 (breast cancer MCF-7; Homo sapiens, MCF7): 0.061 nM; IC50 (ovary cancer SK-OV-3; Homo sapiens, SK-OV-3): 0.099 nM; IC50 ([2]; Homo sapiens, KB 3-1): 0.045 nM; IC50 (prostate cancer PC-3): 0.073 nM
7 | CCC(C)C=C(C)C=CC1=CC2=C(Cl)C(=O)C3(C)OC(=O)C(C(C)O)C3C2=CO1 (centres unmarked) [Compound 7, isochromophilonol A1/A2] | 12900 nM | 5300 nM | - | - | 8.3 µg/mL (≈ 19.8 µM) |  | 16.6 µg/mL (≈ 39.6 µM) | - | - | - | 66.6 µg/mL (≈ 159 µM) | - | - | - | IC50 (lung cancer A549; Homo sapiens, starting concentration 37 µg/mL, read-out: IC50): 2300 nM; IC50 (squamous cancer A431; Homo sapiens, A-431, A431, starting concentration 37 µg/mL, read-out: IC50): 4100 nM; IC50 (breast cancer MCF-7; Homo sapiens, MCF7, MCF-7, starting concentration 37 µg/mL, read-out: IC50): 900 nM; IC50 (ovary cancer SK-OV-3; Homo sapiens, SK-OV-3, SKOV-3, starting concentration 37 µg/mL, read-out: IC50): 3300 nM; IC50 (prostate cancer PC-3; [21]): 1100 nM; MIC ([6]; Mycolicibacterium smegmatis, ATCC700084, starting concentration 66.7 μg/mL, read-out: MIC): 16.6 µg/mL (≈ 39.6 µM)
8 | O=C(O)c1cn(C2CC2)c2cc(N3CCNCC3)c(F)cc2c1=O [Ciprobay, reference compound] |  |  |  |  |  |  |  |  |  |  |  |  |  |  | MIC ([11]; Acinetobacter baumannii, DSM30008, read-out: MIC): 0.26 µg/mL (≈ 0.785 µM)
9 | C[C@@H]1[C@H](O)[C@@H](C)/C=C/C=C/CC/C=C/C=C/C=C/C=C/C(O[C@H]2O[C@H](C)[C@@H](O)[C@H](N)[C@@H]2O)CC2O[C@](O)(CC(O)C(O)CCC(O)CC(O)CC(O)CC(=O)O[C@H]1C)CC(O)C2C(=O)O (some centres unmarked) [Nystatin, reference compound] |  |  | 8.3 ^n µg/mL |  |  |  |  |  |  | 16.6 ^n µg/mL |  |  | 4.2 ^n µg/mL | 8.3 ^n µg/mL | MIC (Mucor hiemalis DSM 2656; [17]): 8.3 ^n µg/mL; MIC (Mucor hiemalis DSM 2656; starting concentration 66.7 μg/mL, listed as nystatin): 8.3 µg/mL (≈ 8.96 µM)
10 | CC(C)=CCc1ccc(O)c2c1C(O)(c1cc(C)cc3c1O[C@H](C(C)(C)O)CO3)NC2=O (some centres unmarked) [Compound 4, diaporisoindole F1/F2] | 59200 nM | 31900 nM | - | - | 33.3 µg/mL (≈ 75.8 µM) | - | 66.6 µg/mL (≈ 152 µM) | - | - | - | 66.6 µg/mL (≈ 152 µM) | - |  |  | MIC [5, 15]: 33.3 µg/mL (≈ 75.8 µM); MIC [8, 19]: 33.3 µg/mL (≈ 75.8 µM)
11 | beauvericin [Compound 8] |  |  | - | - |  | 8.3 µg/mL |  | - | - | - |  | - | 66.6 µg/mL | 33.3 µg/mL | IC50 (lung cancer A549; [22]): 2600 nM; IC50 (squamous cancer A431; A431, starting concentration 37 µg/mL, read-out: IC50): 2400 nM; IC50 (mouse fibroblasts L929; [22]): 2800 nM; IC50 (breast cancer MCF-7; MCF-7, starting concentration 37 µg/mL, read-out: IC50): 2000 nM; IC50 (ovary cancer SK-OV-3; SKOV-3, starting concentration 37 µg/mL, read-out: IC50): 3300 nM; IC50 ([2]; KB3.1, starting concentration 37 µg/mL, read-out: IC50): 2300 nM; IC50 (prostate cancer PC-3; [21]): 1900 nM; MIC (Mucor hiemalis DSM 2656; [17]): 66.6 µg/mL; MIC (Bacillus subtilis DSM 10; [17]): 8.3 µg/mL; MIC [10, 17]: 8.3 µg/mL
12 | CN(C)[C@@H]1C(=O)C(C(N)=O)=C(O)[C@@]2(O)C(=O)C3=C(O)c4c(O)cccc4[C@@](C)(O)[C@H]3[C@H](O)[C@@H]12 [Oxytetracyclin, reference compound] |  |  |  | 0.83 ^o µg/mL |  |  |  | 1.7 ^o µg/mL |  |  |  |  |  |  | MIC (Bacillus subtilis DSM 10; [17]): 8.3 ^o µg/mL; MIC [10, 17]: 0.83 ^o µg/mL
